IC50, inhibition and inhibition of growth data for 12 molecules are collected here from ChEMBL document CHEMBL3785053, “Synthesis and screening of ursolic acid-benzylidine derivatives as potential anti-cancer agents” (Eur J Med Chem, 2016).

Data set [1] is described as follows: Cytotoxicity against human THP1 cells after 48 hrs by MTT assay. The conditions noted are these: THP-1, 48 h. It is filed as functional, cell-based. In general terms: Tetrazolium assays rely on reduction of a dye to a coloured formazan, in cell work by metabolically active cells.
The nature of data set [2]: Cytotoxicity against human FR2 cells at 50 uM after 48 hrs by MTT assay. It is filed as cell-based. The conditions noted are these: read-out: GI.
Data set [3] is described as follows: Cytotoxicity against human FR2 cells after 48 hrs by MTT assay. It is filed as cell-based. The following applies: FR2, 48 h.
Data set [4] has as its system MCF7. Description: Cytotoxicity against human MCF7 cells after 48 hrs by MTT assay. The following applies: MCF7, 48 h. The data set is classed as functional, cell-based.
Data set [5] in a line: Cytotoxicity against human HCT116 cells after 48 hrs by MTT assay. It is filed as functional, cell-based. The following applies: HCT-116, 48 h.
Data set [6] relates to A549. Description: Cytotoxicity against human A549 cells at 50 uM after 48 hrs by MTT assay. The following applies: A549, 48 h, read-out: GI. The data set is classed as functional.
Data set [7] is described as follows: Cytotoxicity against human HCT116 cells at 50 uM after 48 hrs by MTT assay. It is filed as functional. The following applies: HCT-116, 48 h, read-out: GI.
A short description of data set [8]: Cytotoxicity against human THP1 cells at 50 uM after 48 hrs by MTT assay. The data set is classed as functional. The conditions noted are these: THP-1, 48 h, read-out: GI.
Data set [9] deals with MCF7. Description: Cytotoxicity against human MCF7 cells at 50 uM after 48 hrs by MTT assay. The following applies: MCF7, 48 h, read-out: GI. The data set is classed as functional.
Data set [10] concerns A549. Description: Cytotoxicity against human A549 cells after 48 hrs by MTT assay. The data set is classed as functional, cell-based. The conditions noted are these: A549, 48 h.

Consider `C[C@H]1[C@H](C)CC[C@]2(C(=O)O)CC[C@]3(C)C(=CC[C@@H]4[C@@]5(C)C/C(=C\c6ccc([N+](=O)[O-])cc6[N+](=O)[O-])C(=O)C(C)(C)[C@@H]5CC[C@]43C)[C@H]12`, for which the IC50 in data set [1] is 4.1 µM; in data set [3] it was 70 µM; in the data set on MCF7 [4], 4.1 µM; in [5], 5 µM; in the data set with A549 [10], 2 µM. For the same molecule, the inhibition at 48 h, 50 µM in data set [2] turned out to be 95%. The inhibition of growth at 50 µM (in the data set on A549 [6]; in data set [7]; in data set [8]; with MCF7 [9]) was 98% throughout.

`COc1ccccc1/C=C1\C[C@]2(C)[C@H]3CC=C4[C@@H]5[C@@H](C)[C@H](C)CC[C@]5(C(=O)O)CC[C@@]4(C)[C@]3(C)CC[C@H]2C(C)(C)C1=O`: the IC50 in data set [1] turned out to be 0.9 µM; in [3], 8.6 µM; in the data set with MCF7 [4] it was 5 µM; in data set [5] it was 2.1 µM; with A549 [10], 0.5 µM. Further, the inhibition at 48 h, 50 µM in data set [2] was determined as 85%. Besides, the inhibition of growth at 50 µM with A549 [6] amounted to 90%; in data set [7], 98%; in [8] it was 96%; in the data set on MCF7 [9] it was 99%.

For the molecule `COc1cccc(/C=C2\C[C@]3(C)[C@H]4CC=C5[C@@H]6[C@@H](C)[C@H](C)CC[C@]6(C(=O)O)CC[C@@]5(C)[C@]4(C)CC[C@H]3C(C)(C)C2=O)c1`, the half-maximal inhibitory concentration (IC50) was determined as 12 µM in data set [1]; 40 µM in data set [3]; 4.2 µM in the data set with MCF7 [4]; 23 µM in data set [5]; 0.65 µM in the data set on A549 [10]. Besides, in data set [2], the inhibition at 48 h, 50 µM was 85%. In addition, the inhibition of growth at 50 µM was determined as 84% in the data set on A549 [6], 65% in data set [7], 95% in [8] and 98% with MCF7 [9].

Consider `C[C@H]1[C@H](C)CC[C@]2(C(=O)O)CC[C@]3(C)C(=CC[C@@H]4[C@@]5(C)C/C(=C\c6ccccc6[N+](=O)[O-])C(=O)C(C)(C)[C@@H]5CC[C@]43C)[C@H]12`, for which the concentration for half-maximal inhibition (IC50) in data set [1] worked out at 1.1 µM; in data set [3] it was 44 µM; in the data set with MCF7 [4], 30 µM; in data set [5], 5 µM; with A549 [10], 6.4 µM. The inhibition at 48 h, 50 µM in data set [2] was 78%. In addition, the inhibition of growth at 50 µM is 64% in the data set on A549 [6], 91% in data set [7], 86% in data set [8] and 73% with MCF7 [9].

For the molecule `C[C@H]1[C@H](C)CC[C@]2(C(=O)O)CC[C@]3(C)C(=CC[C@@H]4[C@@]5(C)C/C(=C\c6ccc(Br)cc6)C(=O)C(C)(C)[C@@H]5CC[C@]43C)[C@H]12`, the 50% inhibitory concentration (IC50) came out at 5 µM in [1]; 35 µM in [3]; 5 µM with MCF7 [4]; 32 µM in data set [5]; 15 µM with A549 [10]. Further, the inhibition at 48 h, 50 µM in data set [2] came out at 95%. The inhibition of growth at 50 µM with A549 [6] was 60%; in data set [7], 53%; in data set [8], 95%; in the data set with MCF7 [9] it was 98%.

`C[C@H]1[C@H](C)CC[C@]2(C(=O)O)CC[C@]3(C)C(=CC[C@@H]4[C@@]5(C)C/C(=C\c6cccc7ccccc67)C(=O)C(C)(C)[C@@H]5CC[C@]43C)[C@H]12`: the half-inhibitory concentration (IC50) worked out at 2.1 µM in data set [1]; 68 µM in data set [3]; 12 µM with MCF7 [4]; 0.64 µM in data set [5]; 17 µM in the data set with A549 [10]. In addition, the inhibition at 48 h, 50 µM in data set [2] came out at 97%. The inhibition of growth at 50 µM in the data set with A549 [6] stood at 58%; in data set [7], 99%; in [8] it was 90%; in the data set with MCF7 [9], 96%.

As to `C[C@H]1[C@H](C)CC[C@]2(C(=O)O)CC[C@]3(C)C(=CC[C@@H]4[C@@]5(C)C/C(=C\c6ccc(O)cc6)C(=O)C(C)(C)[C@@H]5CC[C@]43C)[C@H]12`, the IC50 was determined as 4.1 µM in data set [1]; 70 µM in data set [3]; 5 µM with MCF7 [4]; 15 µM in [5]; 2.1 µM in the data set on A549 [10]. The inhibition at 48 h, 50 µM in data set [2] was found to be 90%. Also, the inhibition of growth at 50 µM was 98% in the data set on A549 [6], 99% in data set [7], 99% in data set [8] and 98% with MCF7 [9].

As to `COc1cc(/C=C2\C[C@]3(C)[C@H]4CC=C5[C@@H]6[C@@H](C)[C@H](C)CC[C@]6(C(=O)O)CC[C@@]5(C)[C@]4(C)CC[C@H]3C(C)(C)C2=O)cc(OC)c1OC`, the concentration for half-maximal inhibition (IC50) in [1] is 9.1 µM; in data set [3] it was 35 µM; in the data set on MCF7 [4] it was 4 µM; in data set [5], < 0.9 µM; with A549 [10] it was < 0.9 µM. Further, in [2], the inhibition at 48 h, 50 µM was found to be 81%. Further, the inhibition of growth at 50 µM in the data set with A549 [6] is 99%; in data set [7], 99%; in [8], 93%; in the data set with MCF7 [9], 99%.

Turning to `C[C@H]1[C@H](C)CC[C@]2(C(=O)O)CC[C@]3(C)C(=CC[C@@H]4[C@@]5(C)C/C(=C\c6ccc([N+](=O)[O-])cc6)C(=O)C(C)(C)[C@@H]5CC[C@]43C)[C@H]12`, the IC50 in [1] turned out to be 14 µM; in data set [3], 69 µM; in the data set on MCF7 [4], 5 µM; in [5], 12 µM; with A549 [10], 2 µM. The inhibition at 48 h, 50 µM in [2] came to 99%. The inhibition of growth at 50 µM is 99% in the data set with A549 [6], 95% in data set [7], 95% in data set [8] and 95% in the data set with MCF7 [9].

As for `C[C@H]1[C@H](C)CC[C@]2(C(=O)O)CC[C@]3(C)C(=CC[C@@H]4[C@@]5(C)C/C(=C\c6cccc(Cl)c6)C(=O)C(C)(C)[C@@H]5CC[C@]43C)[C@H]12`, the IC50 in [1] was 5 µM; in data set [3], 45 µM; in the data set with MCF7 [4], 29 µM; in data set [5], 4.1 µM; with A549 [10], 7 µM. For the same molecule, the inhibition at 48 h, 50 µM in data set [2] is 80%. Further, the inhibition of growth at 50 µM in the data set on A549 [6] was 65%; in data set [7], 90%; in [8] it was 85%; in the data set with MCF7 [9] it was 70%.

As for `C[C@H]1[C@H](C)CC[C@]2(C(=O)O)CC[C@]3(C)C(=CC[C@@H]4[C@@]5(C)CC[C@H](O)C(C)(C)[C@@H]5CC[C@]43C)[C@H]12` [URSOLIC ACID], the 50% inhibitory concentration (IC50) in [1] was 9.1 µM; in data set [3] it was 31 µM; in [5], 42 µM. Also, in data set [2], the inhibition at 48 h, 50 µM was 66%. Besides, the inhibition of growth at 50 µM was 61% in the data set with A549 [6], 53% in data set [7], 84% in data set [8] and 57% with MCF7 [9].

With `O=c1[nH]cc(F)c(=O)[nH]1` [FLUOROURACIL], the IC50 was 1.7 µM in data set [1], 2 µM with MCF7 [4], 2.3 µM in [5] and 1.4 µM in the data set with A549 [10]. The inhibition of growth at 50 µM in the data set with A549 [6] turned out to be 82%; in data set [7] it was 79%; in data set [8] it was 89%; with MCF7 [9], 92%.

The term IC50 denotes the concentration at which inhibition is half-maximal.
